Laboratory results as given in patent US20100285959A1, “HERBICIDAL MIXTURES” (priority 2006, published 2010).

Legend:
Surinam grass (BRADC) = assay: Test 11 field trial, preemergence; format: in vivo, Brachiaria decumbens; set-up: scale not given here
Text: (§1) Corn seeds (hybrid ‘Pioneer 3041’) were planted in mid spring season, 5 cm deep in a clay soil having 2.6% organic matter and a pH of 5.6. Plots were 8 m long by 1.5 m wide with rows spaced 80 cm apart. Seeds were spaced 15 cm apart within the rows. The field was managed using conventional tillage practices. […] Treatments consisted of Compound 2 or
(§2) Goosegrass was not evaluated 16 or 91 days after application.

arrowleaf sida (SIDRH) = assay: Test 11 field trial, preemergence; format: in vivo, Sida rhombifolia
Text: as §1, §2

field pennycress (THLAR) = assay: Test 1 field trial, preemergence; format: in vivo, Thlaspi arvense; conditions: 28 DAA; g a.i./ha: Atrazine 1680; S-Metolachlor 1870
Text: Corn seeds (hybrid ‘Pioneer 34N43’) were planted in mid spring season, 3.8 cm deep in a silt loam soil having 4.6% organic matter and a pH of 6. Plots were 10.7 m long by 1.5 m wide with rows spaced 76 cm apart. Seeds were spaced 18 cm apart within the rows. The field was managed using conventional tillage practices. […] Results are summarized in Table 1 and are the means of the three replicates. […] Colby's Equation (Colby, S. R. “Calculating Synergistic and Antagonistic Responses of Herbicide Combinations,” Weeds, 15(1), pp 20-22 (1967)) calculates the expected additive effect of herbicidal mixtures, and for two active ingredients is of the form:
Pa+b=Pa+Pb−(PaPb/100) • wherein Pa+b is the percentage effect of the mixture expected from additive contribution of the individual components, • Pa is the observed percentage effect of the first active ingredient at the same use rate as in the mixture, and • Pb is the observed percentage effect of the second active ingredient at the same use rate as in the mixture.

common ragweed (AMBEL) = assay: Test 5 field trial, postemergence; format: in vivo, Ambrosia artemisiifolia; conditions: atrazine 1120, glufosinate 470 or glyphosate 1120 g a.i./ha alone
Text: (§3) Corn seeds (hybrid ‘Pioneer 38H69’) were planted in mid spring season, 5.1 cm deep in a silty clay loam soil having 3% organic matter and a pH of 6.5. Plots were 9.1 m long by 3.0 m wide with rows spaced 76 cm apart. The field was managed using conventional tillage practices. […] All treatments included a surfactant except glufosinate treatments, both alone and in combination. […] Results are summarized in Table 5 and are the means of the three replicates.

large crabgrass (DIGSA) = assay: Test 5 field trial, postemergence; format: in vivo, Digitaria sanguinalis; conditions: atrazine 1120, glufosinate 470 or glyphosate 1120 g a.i./ha alone
Text: as §3

[1] = system: common lambsquarters (CHEAL); assay: Test 8 field trial, preemergence; format: in vivo, Chenopodium album; conditions: g a.i./ha: Cpd 2 100, Atrazine 1680, S-Metolachlor 1870
Text: Corn seeds (hybrid ‘Pioneer 31G96’) were planted in mid spring season, 3.8 cm deep in a clay loam soil having 2% organic matter and a pH of 6.6. Plots were 6.1 m long by 3.0 m wide with rows spaced 76 cm apart. Seeds were spaced 15 cm apart within the rows. The field was managed using conventional tillage practices. […] A few of the weed species could not be evaluated at every timing. […] Results are the means of the three replicates.

corn (ZEAMD) = assay: Test 10 field trial, preemergence; format: in vivo, Zea mays ssp. indentata; conditions: 28 DAA; g a.i./ha: Cpd 2 100, Atrazine 1680, S-Metolachlor 1870
Text: Corn seeds (hybrid ‘Pioneer 33P65 RR’) were planted in mid spring season, 2.5 cm deep in a silt loam soil. Plots were 9.1 m long by 3.0 m wide with rows spaced 76 cm apart. The field was managed using conventional tillage practices. […] Results are the means of the three replicates.

kochia (KCHSC) = assay: Test 23 growth chamber, postemergence; format: in vivo, Kochia scoparia; conditions: 21 DAA; 2,4-D or MCPA alone 250 g a.i./ha
Protocol: (§4) A test was conducted to evaluate the effects on winter barley (HORVW, Hordeum vulgare L.), winter wheat (TRZAW, Triticum aestivum L.), and several weed species of mixtures of Compound 2 with the commercial herbicides (2,4-dichlorophenoxy)acetic acid (2,4-D) and (4-chloro-2-methylphenoxy)acetic acid (MCPA), auxin mimics. […] Plants were treated postemergence at the 2-4 leaf growth stage, and each treatment was replicated three times. […] Plants were watered as needed. […] Results are means of the three replicates.

Russian thistle (SASKR) = assay: Test 23 growth chamber, postemergence; format: in vivo, Salsola kali; conditions: 21 DAA; 2,4-D or MCPA alone 250 g a.i./ha
Protocol: as §4

[2] = system: henbit deadnettle (LAMAM); assay: Test 9 field trial, emerged weeds before corn planting; format: in vivo, Lamium amplexicaule; conditions: g a.i./ha: Cpd 2 100, Glyphosate 1540, Paraquat 1150
Protocol: Corn seeds (hybrid ‘Pioneer 34M91 RR’) were planted in mid spring season, about 3.8 cm deep in a silty clay loam soil having a pH of 6.7. Plots were 9.1 m long by 3.0 m. The field was managed using no-till practices. […] Compound 2 and paraquat treatments, alone and in combination, also included a surfactant. Glyphosate, alone and with Compound 2, included ammonium sulfate in the treatment mixture. […] The effects on the weeds in the treated plots and untreated control plots were recorded 7, 14, 23, 30 and 57 days after application. Most of the weed species could not be evaluated at every timing. Corn response was only evaluated 57 days after application. […] Results are the means of the three replicates.

[3] = 16 DAA, Cpd 2/Cpd 1 at 62 g a.i./ha, alone or + atrazine 1500 or metolachlor 2500
[4] = 16 DAA, Cpd 2/Cpd 1 at 125 g a.i./ha, alone or + atrazine 1500 or metolachlor 2500
[5] = 30 DAA, Cpd 2/Cpd 1 at 62 g a.i./ha, alone or + atrazine 1500 or metolachlor 2500
[6] = 30 DAA, Cpd 2/Cpd 1 at 125 g a.i./ha, alone or + atrazine 1500 or metolachlor 2500
[7] = 16 DAA, atrazine 1500 or metolachlor 2500 g a.i./ha alone
[8] = 30 DAA, atrazine 1500 or metolachlor 2500 g a.i./ha alone
[9] = 44 DAA, atrazine 1500 or metolachlor 2500 g a.i./ha alone

Structure (SMILES): Nc1nc(C2CC2)nc(C(=O)O)c1Cl [Compound 1, 6-amino-5-chloro-2-cyclopropyl-4-pyrimidinecarboxylic acid]
- BRADC Obs (Surinam grass (BRADC); [3]): 20
- BRADC Obs (Surinam grass (BRADC); [4]): 40
- BRADC Obs (Surinam grass (BRADC); [5]): 20
- BRADC Obs (Surinam grass (BRADC); [6]): 50
- BRADC Obs (Surinam grass (BRADC); 44 DAA, Cpd 2/Cpd 1 at 62 g a.i./ha, alone or + atrazine 1500 or metolachlor 2500): 0
- BRADC Obs (Surinam grass (BRADC); 44 DAA, Cpd 2/Cpd 1 at 125 g a.i./ha, alone or + atrazine 1500 or metolachlor 2500): 40
- BRADC Obs (Surinam grass (BRADC); 62 DAA, Cpd 2/Cpd 1 at 62 g a.i./ha, alone or + atrazine 1500 or metolachlor 2500): 0
- BRADC Obs (Surinam grass (BRADC); 62 DAA, Cpd 2/Cpd 1 at 125 g a.i./ha, alone or + atrazine 1500 or metolachlor 2500): 0
- BRADC Obs (Surinam grass (BRADC); 91 DAA, Cpd 2/Cpd 1 at 62 g a.i./ha, alone or + atrazine 1500 or metolachlor 2500): 0
- BRADC Obs (Surinam grass (BRADC); 91 DAA, Cpd 2/Cpd 1 at 125 g a.i./ha, alone or + atrazine 1500 or metolachlor 2500): 0
- SIDRH Obs (arrowleaf sida (SIDRH); [3]): 40
- SIDRH Obs (arrowleaf sida (SIDRH); [4]): 75
- SIDRH Obs (arrowleaf sida (SIDRH); [5]): 60
- SIDRH Obs (arrowleaf sida (SIDRH); [6]): 65
- SIDRH Obs (arrowleaf sida (SIDRH); 44 DAA, 62 g a.i./ha, scale 0 to 100): 75
- SIDRH Obs (arrowleaf sida (SIDRH); 44 DAA, 125 g a.i./ha, scale 0 to 100): 95
- SIDRH Obs (arrowleaf sida (SIDRH); 62 DAA, 62 g a.i./ha, scale 0 to 100): 40
- SIDRH Obs (arrowleaf sida (SIDRH); 62 DAA, 125 g a.i./ha, scale 0 to 100): 95
- SIDRH Obs (arrowleaf sida (SIDRH); 91 DAA, 62 g a.i./ha, scale 0 to 100): 0
- SIDRH Obs (arrowleaf sida (SIDRH); 91 DAA, 125 g a.i./ha, scale 0 to 100): 100

Structure (SMILES): CCNc1nc(Cl)nc(NC(C)C)n1 [Atrazine, atrazine, reference compound]
- THLAR Obs (field pennycress (THLAR)): 93
- AMBEL Obs (common ragweed (AMBEL); 16 DAA): 45%
- AMBEL Obs (common ragweed (AMBEL); 31 DAA): 30%
- DIGSA Obs (large crabgrass (DIGSA); 16 DAA): 0%
- DIGSA Obs (large crabgrass (DIGSA); 31 DAA): 0%
- CHEAL Obs ([1]; 19 DAA): 100%
- CHEAL Obs ([1]; 56 DAA): 100%
- ZEAMD Obs (corn (ZEAMD)): 0%
- BRADC Obs (Surinam grass (BRADC); [7]): 40
- BRADC Obs (Surinam grass (BRADC); [8]): 20
- BRADC Obs (Surinam grass (BRADC); [9]): 0
- BRADC Obs (Surinam grass (BRADC); 62 DAA, atrazine 1500 or metolachlor 2500 g a.i./ha alone): 0
- BRADC Obs (Surinam grass (BRADC); 91 DAA, atrazine 1500 or metolachlor 2500 g a.i./ha alone): 0
- SIDRH Obs (arrowleaf sida (SIDRH); [7]): 97
- SIDRH Obs (arrowleaf sida (SIDRH); [8]): 100
- SIDRH Obs (arrowleaf sida (SIDRH); [9]): 95
- SIDRH Obs (arrowleaf sida (SIDRH); 62 DAA, 1500 g a.i./ha, scale 0 to 100): 80
- SIDRH Obs (arrowleaf sida (SIDRH); 91 DAA, 1500 g a.i./ha, scale 0 to 100): 90

Structure (SMILES): CCc1cccc(C)c1N(C(=O)CCl)[C@@H](C)COC [S-Metolachlor, S-metolachlor, reference compound]
- THLAR Obs (field pennycress (THLAR)): 58
- CHEAL Obs ([1]; 19 DAA): 45%
- CHEAL Obs ([1]; 56 DAA): 23%
- ZEAMD Obs (corn (ZEAMD)): 0%

Structure (SMILES): O=C(O)COc1ccc(Cl)cc1Cl [2,4-D, (2,4-dichlorophenoxy)acetic acid]
- Postemergence KCHSC Obs (kochia (KCHSC)): 70
- Postemergence SASKR Obs (Russian thistle (SASKR)): 63

Structure (SMILES): O=C(O)CNCP(=O)(O)O [Glyphosate]
- AMBEL Obs (common ragweed (AMBEL); 16 DAA): 84%
- AMBEL Obs (common ragweed (AMBEL); 31 DAA): 100%
- DIGSA Obs (large crabgrass (DIGSA); 16 DAA): 98%
- DIGSA Obs (large crabgrass (DIGSA); 31 DAA): 95%
- LAMAM Obs ([2]; 7 DAA): 25%
- LAMAM Obs ([2]; 14 DAA): 37%
- LAMAM Obs ([2]; 23 DAA): 79%
- LAMAM Obs ([2]; 30 DAA): 95%
- LAMAM Obs ([2]; 57 DAA): 66%
